Where “and” joins values, the source holds several entries; their conditions need not be identical. Equal entries are not always repeated. Where two headings read alike, the source gives them in different places.
Columns and labels:
Solubility in water = assay type: physicochemical
A. baumannii DSM30011 [1] = test: Minimal inhibitory concentration (EUCAST), with or without 660 nm irradiation; assay type: cell-based, Acinetobacter baumannii; conditions: for MIC: Acinetobacter baumannii, DSM30011, light or radiation study, 18 h, read-out: MIC
Description: (§1) Acinetobacter baumannii DSM30011, Bacillus subtilis 168, Pseudomonas aeruginosa PA14, P. aeruginosa PAO1, Staphylococcus aureus Mu50, S. aureus Newman and S. aureus USA300 were all grown in MHB-CA at 37°C with an agitation of 180 rpm. Candida albicans SC5314 was grown in yeast extract peptone dextrose broth at 35°C with an agitation of 180 rpm.
(§2) Minimal inhibitory concentrations (MICs) for selected bacteria were investigated according to the EUCAST guidelines. Serial dilutions of the compounds, photosensitizers and aminoglycosides were made in MHB-CA in 384-well plates. Stationary-phase cells were diluted in MHB-CA to have a final concentration of 5.5 × 10^5 CFU/mL. Samples were incubated in the dark for 20 minutes at 37°C and either irradiated at 660 nm for 30 minutes with a LED device or kept in the dark. Irradiated samples received a total of 168 mJ/mm^2. Plates were then incubated at 37°C for 18 hours and MICs were evaluated visually. Triplicates were done and the synergy, or fractional inhibitory concentration (FIC), was calculated according to Doern et al., 2014: FIC = (MIC of AB)/(MIC of A) + (MIC of AB)/(MIC of B) [formula]

P. aeruginosa PA14 [2] = test: as above; assay type: cell-based, Pseudomonas aeruginosa; conditions: for MIC: read-out: MIC
Description: as §1, §2

P. aeruginosa PAO1 [3] = test: as above; assay type: cell-based, Pseudomonas aeruginosa; conditions: for MIC: Pseudomonas aeruginosa, PAO1, light or radiation study, 18 h, read-out: MIC
Description: as §1, §2

S. aureus Mu50 [4] = test: as above; assay type: cell-based; conditions: Staphylococcus aureus, MU50, light or radiation study, 18 h, read-out: MIC
Description: as §1, §2

S. aureus USA300 [5] = test: as above; assay type: cell-based; conditions: Staphylococcus aureus, USA300, light or radiation study, 18 h
Description: as §1, §2

S. aureus Newman [6] = test: as above; assay type: cell-based, Staphylococcus aureus; conditions: for MIC: Staphylococcus aureus, NEWMAN, light or radiation study, 18 h, read-out: MIC
Description: as §1, §2

S. aureus Mu50 [7] = test: Antibacterial photodynamic therapy on planktonic cells (CFU count); assay type: cell-based, Staphylococcus aureus; conditions: for log reduction at 10 µM: Staphylococcus aureus, MU50, light or radiation study, 0.5 h, irradiated 660 nm 30 minutes, 5 J/mm^2, read-out: Mean CFU drop (survival dropped by)
Description: as §1
(§3) Cells were brought to stationary phase by incubating them in MHB-CA for at least 18 hours at 37°C with 180 rpm and diluted to an optical density of 1.0 just before the experiment. Cells were incubated for 20 minutes with either the compounds, photosensitizers alone, or aminoglycosides alone. Unless stated otherwise, a concentration of 10 µM was used for all experiments and samples were irradiated for 30 minutes at 660 nm with the Solis-660C lamp from ThorLabs, receiving a total of 5 J/mm^2. After illumination, cells were washed with phosphate-buffered saline (PBS) 1X, serially diluted and plated on Mueller-Hinton agar. The next day, colony forming units (CFUs) were counted.

S. aureus Newman [8] = test: as above; assay type: cell-based, Staphylococcus aureus; conditions: Staphylococcus aureus, NEWMAN, light or radiation study, 0.5 h, 10 µM, irradiated 660 nm 30 minutes, 5 J/mm^2, read-out: Mean CFU drop (survival dropped by)
Description: as §1, §3

S. aureus USA300 [9] = test: as above; assay type: cell-based; conditions: Staphylococcus aureus, USA300, light or radiation study, 0.5 h, irradiated 660 nm 30 minutes, 5 J/mm^2, read-out: Mean CFU drop (survival dropped by)
Description: as §1, §3

A. baumannii DSM30011 [10] = test: Antibacterial photodynamic therapy on biofilm cells; assay type: cell-based, Acinetobacter baumannii
Excerpt: (§4) Compounds Neo-Ce6 and Tobra-Ce6 caused strong drop in survival for biofilms of A. baumannii […], P. aeruginosa species and S. aureus Mu50. […] Tobra-Ce6 had its strongest effect on A. baumannii DSM30011 with more than 4 log10 CFU/mL drop in survival and a drop of 1.7 log10 CFU/mL in P. aeruginosa PA14. Table 2: aPDT results for biofilm cells expressed in drop in the log10 CFU/mL compared to controls.

P. aeruginosa PA14 [11] = test: as above; assay type: cell-based, Pseudomonas aeruginosa
Excerpt: as §4

P. aeruginosa PAO1 [12] = test: as above; assay type: cell-based, Pseudomonas aeruginosa
Excerpt: as §4

S. aureus Mu50 [13] = test: as above; assay type: cell-based, Staphylococcus aureus
Excerpt: as §4

S. aureus Newman [14] = test: as above; assay type: cell-based, Staphylococcus aureus
Excerpt: as §4

S. aureus USA300 [15] = test: as above; assay type: cell-based, Staphylococcus aureus
Excerpt: as §4

[16] = with (+) irradiation, 660 nm 30 minutes, 168 mJ/mm^2
[17] = conjugate with irradiation, from FIC

Row | SMILES | solubility (Solubility in water) | MIC (A. baumannii DSM30011 [1]; [16]) [µM] | MIC (A. baumannii DSM30011 [1]; without (-) irradiation) [µM] | MIC (P. aeruginosa PAO1 [3]; [16]) [µM] | MIC (P. aeruginosa PAO1 [3]; without (-) irradiation) [µM] | MIC (S. aureus Mu50 [4]; [16]) [µM] | MIC (S. aureus Mu50 [4]; without (-) irradiation) [µM] | MIC (S. aureus USA300 [5]; [16]) [µM] | MIC (S. aureus USA300 [5]; without (-) irradiation) [µM] | MIC (S. aureus Newman [6]; [16]) [µM] | MIC (S. aureus Newman [6]; without (-) irradiation) [µM] | log reduction at 10 µM (S. aureus Mu50 [7]) | log reduction at 10 µM (S. aureus Newman [8]) | log reduction at 10 µM (S. aureus USA300 [9]) | drop in the log10 CFU/mL compared to controls (A. baumannii DSM30011 [10]; - irradiation) [log10 CFU/mL] | drop in the log10 CFU/mL compared to controls (P. aeruginosa PA14 [11]; + irradiation) | drop in the log10 CFU/mL compared to controls (P. aeruginosa PA14 [11]; - irradiation) [log10 CFU/mL] | drop in the log10 CFU/mL compared to controls (P. aeruginosa PAO1 [12]; + irradiation) [log10 CFU/mL] | drop in the log10 CFU/mL compared to controls (P. aeruginosa PAO1 [12]; - irradiation) [log10 CFU/mL] | drop in the log10 CFU/mL compared to controls (S. aureus Mu50 [13]; + irradiation) [log10 CFU/mL] | further results
1 | C=Cc1c(C)c2cc3nc(c(CC(=O)O)c4[nH]c(cc5nc(cc1[nH]2)C(C)=C5CC)c(C)c4C(=O)O)[C@@H](CCC(=O)NC[C@H]1O[C@H](O[C@@H]2[C@@H](O)[C@H](O[C@H]4O[C@H](CN)[C@@H](O)C[C@H]4N)[C@@H](N)C[C@H]2N)[C@H](O)[C@@H](N)[C@@H]1O)[C@@H]3C [Tobra-Ce6] | highly soluble | 2 to 4 | > 16 | 4 to 8 | > 16 | 2 to 4 | 16 | 2 to 4 | > 16 | 2 | > 16 | 5.4 | ~3.9 | 3.5 | 1.58 | 1.7 log10 CFU/mL and 1.69 log10 CFU/mL | 0.85 | 1.25 | 0.79 | 1.32 | Synergy (A. baumannii DSM30011 [1]; [17]): +; MIC (P. aeruginosa PA14 [2]; Pseudomonas aeruginosa, PA14, light or radiation study, 18 h, with (+) irradiation, 660 nm 30 minutes, 168 mJ/mm^2): > 16 µM; Synergy (P. aeruginosa PA14 [2]; [17]): -; MIC (P. aeruginosa PA14 [2]; without (-) irradiation): > 16 µM; Synergy (P. aeruginosa PAO1 [3]; [17]): -; Synergy (S. aureus Newman [6]; [17]): +; survival (in words) (S. aureus Mu50 [7]; irradiated samples, 5 J/mm^2 (Figure 3a)): high bacterial death; drop in the log10 CFU/mL compared to controls (S. aureus Mu50 [13]; - irradiation): 0.37 log10 CFU/mL; drop in the log10 CFU/mL compared to controls (S. aureus Newman [14]; + irradiation): 1.36 log10 CFU/mL; drop in the log10 CFU/mL compared to controls (S. aureus Newman [14]; - irradiation): 0.49 log10 CFU/mL; drop in the log10 CFU/mL compared to controls (S. aureus USA300 [15]; + irradiation): 0.14 log10 CFU/mL; drop in the log10 CFU/mL compared to controls (S. aureus USA300 [15]; - irradiation): 0.28 log10 CFU/mL
2 | C=Cc1c(C)c2cc3nc(c(CC(=O)O)c4[nH]c(cc5nc(cc1[nH]2)C(C)=C5CC)c(C)c4C(=O)O)[C@@H](CCC(=O)O)[C@@H]3C [Ce6, chlorin e6] | poorly soluble in water | > 64 | > 64 | > 64 | > 64 | 4 | > 64 | 16 to 32 | > 64 | 64 | > 64 | 3.2 | ~3.6 | 3.2 | 0.45 | 0.60 log10 CFU/mL | 0.29 | 0.25 | 0.28 | 0.36 | MIC (P. aeruginosa PA14 [2]; Pseudomonas aeruginosa, PA14, light or radiation study, 18 h, without (-) irradiation): > 64 µM; MIC (P. aeruginosa PA14 [2]; [16]): > 64 µM; drop in the log10 CFU/mL compared to controls (A. baumannii DSM30011 [10]; + irradiation): 0.71 log10 CFU/mL; drop in the log10 CFU/mL compared to controls (S. aureus Mu50 [13]; - irradiation): -0.005 log10 CFU/mL; drop in the log10 CFU/mL compared to controls (S. aureus Newman [14]; + irradiation): 0.57 log10 CFU/mL; drop in the log10 CFU/mL compared to controls (S. aureus Newman [14]; - irradiation): -0.19 log10 CFU/mL; drop in the log10 CFU/mL compared to controls (S. aureus USA300 [15]; + irradiation): 0.73 log10 CFU/mL; drop in the log10 CFU/mL compared to controls (S. aureus USA300 [15]; - irradiation): 0.33 log10 CFU/mL

— patent EP4389827A1, “AMINOGLYCOSIDE-LINKED PHOTOSENSITIZERS” (Centre National de la Recherche Scientifique, priority 2022, dated 2024)
